Patent US5767120A, “Tricyclic derivatives, compositions and methods of use” (Schering Corporation, priority 1995, dated 1998)

Legend:
TNF-α = experiment: Inhibition of LPS-Induced TNF-α Production From the Murine Cell Line WEHI-265; type: cell-based; conditions: Mus musculus, WEHI-265 cells, 20-24 hours
Procedure: This test procedure is a standard test used to determine anti-TNF-α activity and to evaluate the usefulness of said compounds for counteracting the biological effects of TNF-α.
1. In Vitro Study: Inhibition of LPS-Induced TNF-α Production From the Murine Cell Line WEHI-265
1) Cells (obtained from cell cultures containing ≤10^6 cells/ml) are suspended at 0.2×10^6 cells/ml in complete medium (RPMI1640, with 10% FCS, 10^-5 M 2-ME, 2 mM glutamine and 10 mM HEPES buffer) and plated in CoStar 24 well plates (1.0 ml/well).
2) Compounds are dissolved in the appropriate vehicle at 400 times the concentration to be tested, and 5 μl of compound is added to the wells.
3) LPS (from E. coli 0111:B4) is diluted to 6 μg/ml and 1.0 ml is added to wells.
4) Plates are incubated 20-24 hours in 37° CO02 incubator.
5) Supernatant fluids are collected and analyzed for TNF content as described in J. ImmunoL, 142:3884.

serum TNF = experiment: Inhibition of LPS-Induced Serum TNF; type: in vivo, Mice (C57BI/6J males); conditions: Mus musculus, 1.5 h; 25 mg/kg orally or i.p. one hour before LPS (50 μg i.p.); serum 90 min after LPS; values may be subject to a wide margin of error
Procedure: In addition to the in vitro test described above, the following in vivo test was also performed on several of the compounds of the present invention.
2. In Vivo Study: Inhibition of LPS-Induced Serum TNF
1) Mice (C57BI/6J males, 6-8 weeks of age) are dosed with the indicated compound (dissolved in CMC suspension vehicle; compounds are given orally or i.p. one hour before LPS challenge).
3) Mice are bled 90 min after LPS challenge.
4) Sera are analyzed for TNF content by ELISA as described in J. Immunol.

[1] = Inhibition of LPS/Galactosaimine-Induced Lethality (septic shock); type: in vivo, Mice (C57BI/6J males); conditions: 25 mg/kg orally or i.p. one hour before LPS (100 ng) and d-galactosamine (8 mg) i.p.; survival 24 hours after challenge
Procedure: This test procedure is a standard test used to determine activity against septic shock.
3. In Vivo Study: Inhibition of LPS/Galactosaimine-Induced Lethality
1) Mice (C57BI/6J males, 6-8 weeks of age) are dosed with the indicated compound (dissolved in CMC suspension vehicle; compounds are given orally or i.p. one hour before challenge with LPS and d-galactosamine).
2) Mice are challenged i.p. with a mixture of LPS (from E. coli 0111:B4; 100 ng) and d-galactosamine (8 mg).
3) Survival is determined 24 hours after challenge. See procedure published in J. Exp. Med. 165:657 (1987)

Structure (SMILES)	inhibition at 10 µM (TNF-α) [%]	inhibition in vivo at 25 mg/kg (serum TNF) [%]	# dead/total at 25 mg/kg [1]
CCOC1(CCN(C)C)c2ccccc2CCc2ccccc21 [Compound IA, 5-ethoxy-5-dimethylaminoethyl-10,11-dihydro-5H-dibenzo[a,d]cycloheptene]	51	69	0/8
CCCC1(CCN(C)C)c2ccccc2CCc2ccccc21 [Compound IC, 10,11-dihydro-N,N-dimethyl-5-propyl-5H-dibenzo[a,d]cycloheptene-5-(2-ethanamine)]	60	65	1/9
C=CCC1(CCN(C)C(=O)OCC)c2ccccc2CCc2ccccc21 [Compound ICC]	42		
C=CCC1(CCN(C)C)c2ccccc2CCc2ccccc21 [Compound IE, 10,11-dihydro-N,N-dimethyl-5-(2-propenyl)-5H-dibenzo[a,d]cycloheptene-5-(2-ethanamine)]	67	48	0/9
CCCC1(CCCN(C)C)c2ccccc2CCc2ccccc21 [Compound IG, 10,11-dihydro-N,N-dimethyl5-propyl-5H-dibenzo[a,d]cycloheptenep]	60		
CCOC1(CCN(C)C(=O)c2ccc(C(=O)O)cc2)c2ccccc2CCc2ccccc21 [Compound IGG, 4-[[N-[2-[5-ethoxy-10,11-dihydro-5H-dibenzo[a,d]cyclohepten-5-yl]ethyl]-N-methyl]oxo]benzoic acid]	4	0	10/10
CCCC1(CN)c2ccccc2CCc2ccccc21 [Compound IH, 10,11-dihydro-5-propyl-5H-dibenzo[a,d]cycloheptene-5-methanamine]	77		
CCOC1(CCN2Cc3ccccc3C2)c2ccccc2CCc2ccccc21 [Compound IL, 2-[2-[5-ethoxy-10,11-dihyd]	53		
CCOC1(CCN2CCCC2)c2ccccc2COc2ccccc21 (centres unmarked) [Compound IM, 1-[2-(11-ethoxy-6,11-dihydrodibenz[b,e]oxepin-11-yl)ethyl]pyrrolidine]	54	58	1/8
CCOC1(CCN(C)S(C)(=O)=O)c2ccccc2CCc2ccccc21 [Compound IN, N-[2-(5-ethoxy-10,11-dihydro-5H-dibenzo[a,d]cycloheptenyl)ethyl]-N-methyl-methanesulfonamide]	19		6/9
CCCC1(CN(C)C)c2ccccc2CCc2ccccc21 [Compound ISS, 10,11-dihydro-N,N-dimethyl-5-propyl-5H-dibenzo[a,d]cyclohepten-5-methanamine]	67		
CCOC1(CCN(C)C)c2ccccc2CCc2ccc(Cl)cc21 (centres unmarked) [Compound IS]			3/10
C=CCC1(CC=NO)c2ccccc2CCc2ccccc21 [Compound IUU, 2-[10,11-dihydro. 5-(2-propenyl)-5H-dibenzo[a,d]cyclohepten-5-yl]-ethanone oxime]	29		
CCOC1(CCNC)c2ccccc2COc2ccccc21 (centres unmarked) [Compound IU]	25	21	8/9
C=CCC1(CCN2CCCC2C(=O)O)c2ccccc2CCc2ccccc21 (centres unmarked) [Compound IVV, 1-[2-[10,11-dihydro-5-(2propenyl)-5H-dibenzo[a,d]cyclohepten-5-yl]ethyl]-2-pyrrolidinecarboxylic acid]	14		
CCOC(=O)N(C)CCC1(OCC)c2ccccc2CCc2ccccc21 [Compound IV]	34		
C=CCC1(CCNC)c2ccccc2CCc2ccccc21 [IAA]	56	38	5/10
CCOCC1(CCNC)c2ccccc2CCc2ccccc21 [IBB]	45	34	10/10
CCOC1(CCN(C)C)c2ccccc2COc2ccccc21 (centres unmarked) [IB]	33	70	0/9
CCCC1(CCNC)c2ccccc2CCc2ccccc21 [IDD]	59	31	9/10
CCCC1(CCN(C)C)c2ccccc2COc2ccccc21 (centres unmarked) [ID]	62	67	
CCOCC1(CCN(C)C)c2ccccc2CCc2ccccc21 [IEE]	23	38	8/10
CCOC1(CCN(C)C(=O)c2ccc(C(=O)OC)cc2)c2ccccc2CCc2ccccc21 [IFF]	44	0	9/9

Structure (SMILES)	inhibition at 10 µM (TNF-α) [%]	inhibition in vivo at 25 mg/kg (serum TNF) [%]	# dead/total at 25 mg/kg [1]
CN(C)CCC1(CC2CC2)c2ccccc2CCc2ccccc21 [IF]	68	34	
CCOC(=O)CN(C)CCC1(OCC)c2ccccc2CCc2ccccc21 [IHH]	40		
CCOC1(CCN(C)CCOCCO)c2ccccc2CCc2ccccc21 [IJJ]	53		
CCOC1(CCN(C)C(C)=O)c2ccccc2CCc2ccccc21 [IJ]	48		8/8
CCOC1(CCN(C)CC(=O)O)c2ccccc2CCc2ccccc21 [IKK]	13		
CCOC1(CCNC)c2ccccc2CCc2ccccc21 [IK]	60	40	0/9
C=CCC1(CCNC)c2ccccc2COc2ccccc21 (centres unmarked) [ILL]	50	44	3/10
C=CCC1(CCN(C)C)c2ccccc2COc2ccccc21 (centres unmarked) [IMM]	70	32	0/10
C=CCCC1(CCN(C)C)c2ccccc2CCc2ccccc21 [INN]	75		
CN(C)CCC1(C)c2ccccc2CCc2ccccc21 [IOO]	16		
C=CCC1(CCN2CCCC2)c2ccccc2CCc2ccccc21 [IO]	66	47	5/9
C=CCC1(CCN(C)C)c2ccccc2CCc2ccc(Cl)cc21 (centres unmarked) [IPP]	52		
CCCC1(CCN2CCCC2)c2ccccc2CCc2ccccc21 [IP]	44	52	9/9
CCCC1(CCN(C)C)c2ccccc2CCc2ccc(Cl)cc21 (centres unmarked) [IQQ]	42		
C=CCC1(CCN2CCN(C)CC2)c2ccccc2CCc2ccccc21 [IQ]	68		
ON=CCC1(CC2CC2)c2ccccc2CCc2ccccc21 [IRR]	48	38	
C=CCC1(CCN(C)C(C)=O)c2ccccc2CCc2ccccc21 [IR]	61	36	
CCCC1(CCC=NO)c2ccccc2CCc2ccccc21 [ITT]	4		
CCOC1(CCN(C)C(=O)c2cc[n+]([O-])cc2)c2ccccc2CCc2ccccc21 [IT]	14		9/9
CCOC1(CCN(C)S(=O)(=O)c2ccccc2)c2ccccc2CCc2ccccc21 [IW]	47		8/10
CCOCC1(CN)c2ccccc2CCc2ccccc21 [IX]	29	3	9/10
CCOCC1(CNC(C)=O)c2ccccc2CCc2ccccc21 [IY]	17		
CCOCC1(CN(C)C)c2ccccc2CCc2ccccc21 [IZ]	37	0	8/10
